This note sets out measurements from US9891212B2, “Screening method, a kit, a method of treatment and a compound for use in a method of treatment” (ATROGI AB, priority 2013, dated 2018).

For experiment [1], the system named is L6-myotubes. Put plainly: 3H-2-deoxy-glucose uptake in L6-myotubes. The format is cell-based. The following applies: for glucose uptake, isoprenaline versus BRL 37344: 2 h stimulation with 10^-5 M, n=7, FIG. 9. The method, then:
Glucose uptake was measured in L6-myotubes grown in 12-well plates using ^3H-2-dexoy-glucose as previously described (Nevzorova et al. 2002) with minor modifications. L6-cells were differentiated for 7-8 days before the experiment, serum-starved over night in media containing 0.5% fatty-acid free BSA and stimulated with BRL 373 44 or Isoprenaline totally 2 h, unless otherwise stated. SQ 22 536 or ICI 118 551 were added 30 min before stimulation. 25 min before the end of the experiment, cells were washed twice in warm PBS and kept in glucose-free DMEM together with the different drugs for 10 min before 50 nM ^3H-2-deoxy-glucose was added for additional 6 minutes. The reaction was terminated by washing the cells in ice-cold PBS three times. Cells were lysed in 0.2 NaOH for 1 h in 60° C. and the radioactivity detected by liquid scintillation (scintillation buffer Emulsifier Safe, Perking Elmer and analysis is a Tri-Carb® 2800TR from Perkin Elmer).

The subject of another experiment is L6 skeletal muscle cells. The experiment in a line: cAMP levels in L6 skeletal muscle cells (alpha-screen cAMP kit). Format: cell-based. The procedure:
L6 myocytes were obtained from ATCC and grown in Dulbecco's Modified Eagle's Medium (DMEM) containing 4.5 g/L glucose supplemented with 10% fetal bovine serum (FBS), 2 mM L-Glutamine, 50 U/ml penicillin, 50 μg/ml streptomycin and 10 mM HEPES. Cells were plated in 12- or 96-well plates and after reaching confluence differentiation was induces by differentiation media containing 2% FBS.
L6-cells were differentiated in 96-well plates and after 7 days of differentiation cells serum-starved and treated with drugs in stimulation buffer (HBSS supplemented with 1% BSA and 5 mM HEPES, pH 7.4). To end the reaction cells were harvested in ice-cold lysis buffer (0.3% Tween-20, 5 mM Hepes, 1% BSA and 1 mM IBMX, pH 7.4). Levels of cAMP were detected by an alpha-screen cAMP kit (6760625R from Perkin Elmer) according to the manufactures instruction.
The cAMP was measured in L6-myotubes after 2 h stimulation. The results (FIG. 3) indicate that BRL 37344 cannot be considered a general beta2-adrenergic receptor agonist (or beta1-adrenergic receptor) stimulating cAMP in skeletal muscle cells.
In general terms: cAMP levels reflect the balance of adenylyl cyclase and phosphodiesterase activity.

The subject of experiment [2] is L6-myotubes. The experiment in a line: western blot for detection of phospho-CREB in L6-myotubes. The format is cell-based. The following applies: 10^-5 M, 10 to 120 min, FIGS. 5 and 6. The procedure: L6-myotubes were harvested and subjected to western blot for detection of phospho-CREB. For measuring protein phosphorylation of a target downstream cAMP cells were treated as indicated and harvested in pre-warmed SDS sample buffer containing 50 mM dithiothreitol, sonicated and boiled for 5 min. Proteins were separated on a 12% polyacrylamide gel for 3 h at 80 V. The proteins were transferred onto Hypbond-P PVDF membrane (GE Healthcare) which was blocked in milk for 1 h and probed with primary antibodies. All antibodies were purchased from Cell Signaling and diluted 1:1000: Primary antibodies were detected using a secondary antibody (horseradish peroxidase-linked anti-rabbit IgG, #7074) diluted 1:2000 and enhanced chemiluminescence (ECL plus, GE Healthcare). Photos were taken in a CCD camera (Fuji Las 1000) and quantification performed in software ImageJ.
Lanes 1 and 7=basal, 2-6=isoprenaline treatment for 10, 15, 30, 60 and 120 min, 8-12=BRL 37344 treatment for 10, 15, 30, 60 and 120 min. […] Quantification of n=3 blots (FIG. 6).
On the technique in general: A western blot detects proteins with antibodies after separation by electrophoresis.

Another experiment has as its system GLUT4. Put plainly: GLUT4 translocation to the plasma membrane in L6 cells (immunofluorescence). The format is cell-based. The conditions noted are these: 2 h stimulation, FIGS. 12 and 13. The procedure:
L6 cells were grown in 8-well culture chamber slides (BD Biosciences, Franklin Lakes, BJ), serum starved overnight and stimulated with insulin, isoproterenol or BRL 37344 for 2 h. Cells were fixed for 5 min with 4% formaldehyde in PBS, quenched with 50 mM glycine in PBS for 10 min, blocked with 5% BSA in PBS and incubated with primary antibodies (diluted in 1.5% BSA in PBS) overnight at 4° C. As primary antibody anti GLUT4 binding to extracellular parts of GLUT4 (Santa Cruz Biotechnology, sc-1606, dilution 1:125) was used. Cells were then washed with PBS and incubated with Alexa Fluor® 488-conjugated goat anti-rabbit IgG (1:500 dilution, 1.5% BSA in PBS) for 1 h. Slides were mounted with ProLong® Gold antifade reagent (Invitrogen) and fluorescence micrographs were obtained (FIG. 12).

Experiment [3] relates to β3-KO mice. The experiment in a line: in vivo 3H-2-deoxy-glucose uptake in soleus and gastrocnemius muscle. The following applies: 1 mg/kg i.p., CPM per gram tissue divided by CPM per gram blood, FIG. 14. The procedure: β3-KO mice on FVB background, 12-16 weeks old, were anaesthetised with pentobarbital (67 mg/kg). BRL 37344 (1 mg/kg) or saline was injected i.p. about 10 min after induction of anaesthesia. After 20 min ^3H-2-deoxy-glucose (16 nM/130 μCi per kg of mouse) diluted in 100 μl saline was injected. Mice were killed 1 h after injection of 2-deoxy-glucose. Blood sample was taken from heart and soleus and gastrocnemius were dissected out. Tissues were weighed and dissolved in 0.5 M NaOH in 60° C. Radioactivity was detected as described above. The results are expressed as CPM per gram tissue divided by CPM per gram blood.

The test system of experiment [4] is β3-KO mice. Put plainly: blood glucose over time (glucose tolerance). The following applies: 1 mg per kg i.p., FIG. 15. The format is in vivo. The procedure:
FIG. 15 is a graph showing variation over time of blood glucose (in mM) in β3-KO mice after ip injection of either saline or BRL 37344 (1 mg per kg). P<0.01 for the effect of BRL 37344 with two-way ANOVA.

Turning to `CC(C)NCC(O)c1ccc(O)c(O)c1` (racemic) [isoprenaline, (RS)-4-[1-hydroxy-2-(isopropylamino)ethyl]benzene-1,2-diol], the “glucose uptake, isoprenaline versus BRL 37344” value in the experiment with L6-myotubes [1] was “no significant difference between the responses”.
Regarding `C[C@H](Cc1ccc(OCC(=O)O)cc1)NC[C@H](O)c1cccc(Cl)c1` (relative stereo) [BRL 37344, (±)-(R*,R*)-[4-[2-[[2-(3-chlorophenyl)-2-hydroxyethyl]amino]propyl]phenoxy]acetic acid], in the experiment on L6 skeletal muscle cells (L6-myotubes, 2 h stimulation, FIG. 3), the “cAMP levels at different concentrations” value was “no or little impact on cAMP levels”. Also, in the experiment on L6 skeletal muscle cells (L6 skeletal muscle cells, 0 min to 25 min of contact, FIG. 2), the “cAMP at time points examined” value is on record as “At no time point examined did BRL 37344 increase cAMP”. Also, the cAMP over basal entry in the experiment on L6 skeletal muscle cells (L6 skeletal muscle cells, FIG. 1) is given as “did not significantly increase cAMP over basal”. Besides, in the experiment with L6-myotubes [2], the “phospho-CREB (downstream target of cAMP)” value is “not affected”. The “glucose uptake, isoprenaline versus BRL 37344” value with L6-myotubes [1] is “no significant difference between the responses”. The “BRL 37344 stimulated glucose uptake with beta2 inhibition” value in the experiment with L6-myotubes [1] (BRL 37344 10 μM, 2 h, in presence of 10 μM ICI 118551, FIG. 11) is “fully inhibits”. Further, the “glucose uptake at different concentrations” value in the experiment with L6-myotubes [1] (L6-myotubes, 2 h stimulation, n=7, FIG. 8) is recorded as “increases glucose uptake”. Moreover, the “glucose uptake at different time points” value in the experiment on L6-myotubes [1] (L6-myotubes, BRL 37344 10 μM, FIG. 7) is given as “increases during time”. In the experiment with L6-myotubes [1] (SQ 22536 500 μM added 30 min before stimulation, FIG. 10), the “BRL 37344 stimulated glucose uptake with inhibition of adenylyl cyclase” value is recorded as “does not decrease”. For the same compound, the “GLUT4 translocation to the plasma membrane” value in the experiment with GLUT4 was “increase of GLUT4 translocation to the plasma membrane”. The “glucose uptake in both skeletal muscles relative to control mice” value in the experiment with β3-KO mice [3] is recorded as 2-3 times higher. Moreover, in the experiment with β3-KO mice [4], the “maximum blood glucose compared to control mice” value is reported as “substantially reduced”.
